# Data as given in publication PMC5573416, “Inhibiting mycobacterial tryptophan synthase by targeting the inter-subunit interface” (Scientific Reports, 2017).
# Like-named read-outs stand apart in the source and are kept apart here.
# Tests used:
# Mtb H37Rv [1] = assay: microbe, parasite or virus in culture; format: cell-based, Mycobacterium tuberculosis; settings: for MIC: Mycobacterium tuberculosis, H37RV, read-out: Mtb H37Rv MIC
# Mycobacterium bovis BCG = assay: microbe, parasite or virus in culture; format: cell-based; settings: Mycobacterium tuberculosis variant bovis BCG, read-out: MIC in M. bovis BCG
# [2] = pH 7.4
# physchem = settings: pH 7.4, aqueous buffer, kinetic from dmso stock
# in vitro = settings: PAMPA
# [3] = Property forecast index (ChromlogD pH 7.4 + number of aromatic rings); format: physicochemical
# [4] = pH 7.4; remark: listed apart in the source
# [5] = tested on: M. bovis BCG over-expressing constituents of the trp operon; format: cell-based; settings: pVV16 trpA or trpB
# [6] = target: PLP-induced tryptophan synthase complex (Mycobacterium tuberculosis, UniProt P9WFX9+P9WFY1); format: binding
# Chain of PLP-induced tryptophan synthase complex (P9WFY1 whole entry): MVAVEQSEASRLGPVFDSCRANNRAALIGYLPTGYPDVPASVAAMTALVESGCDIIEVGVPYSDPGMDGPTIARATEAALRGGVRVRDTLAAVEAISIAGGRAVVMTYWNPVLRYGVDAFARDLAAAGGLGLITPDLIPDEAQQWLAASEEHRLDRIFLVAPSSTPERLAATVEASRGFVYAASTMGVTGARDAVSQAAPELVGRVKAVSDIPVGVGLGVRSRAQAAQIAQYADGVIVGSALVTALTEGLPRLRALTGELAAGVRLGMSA
# Chain of PLP-induced tryptophan synthase complex (P9WFX9 12-421 limits assumed): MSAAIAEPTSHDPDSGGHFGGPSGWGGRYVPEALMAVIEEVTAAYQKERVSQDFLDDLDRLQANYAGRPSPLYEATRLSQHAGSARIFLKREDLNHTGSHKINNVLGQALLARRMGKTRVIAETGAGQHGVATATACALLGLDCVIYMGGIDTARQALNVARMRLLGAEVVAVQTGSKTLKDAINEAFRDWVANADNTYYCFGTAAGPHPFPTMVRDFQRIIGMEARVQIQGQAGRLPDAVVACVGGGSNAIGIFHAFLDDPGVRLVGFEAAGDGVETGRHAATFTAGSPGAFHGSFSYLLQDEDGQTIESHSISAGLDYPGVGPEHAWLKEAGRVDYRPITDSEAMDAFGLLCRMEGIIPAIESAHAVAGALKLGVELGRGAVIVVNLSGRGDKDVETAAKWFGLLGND
# [7] = target: T1, Mtb tryptophan synthase (TrpA and TrpB) (Mycobacterium tuberculosis, UniProt P9WFX9+P9WFY1); format: biochemical
# T1 sequence (P9WFY1 whole entry): as the sequence (P9WFY1 whole entry) above
# T1 sequence (P9WFX9 12-421 limits assumed): as the sequence (P9WFX9 12-421 limits assumed) above
# [8] = pH 7.4; remark: listed apart in the source
# M. bovis BCG = format: cell-based, Mycobacterium bovis BCG
# [9] = target: T1, Mtb tryptophan synthase (TrpA and TrpB); format: biochemical; remark: listed apart in the source
# Mtb H37Rv [10] = settings: mouse, in vivo
# [11] = PAMPA
# [12] = sum of chromatographic logD at pH = 7.4 + number of aromatic rings
Compound,MIC (Mtb H37Rv [1]),MIC (Mycobacterium bovis BCG),Cli human [2],solubility (physchem),Papp (in vitro),"PFI [3, 12]",Cli mouse [4],Effect on MIC of over-expression of the individual WT subunits [5],HepG2 Tox50 (HepG2 cells; human),Binding to PLP-induced tryptophan synthase complex [6],CLND Solubility [8],L-tryptophan rescue of inhibition (M. bovis BCG),Mtb H37Rv MIC (Mtb H37Rv [1]),AMP Permeability [11],HepG2 Tox50 (HepG2 cells),further results
"O=S1(=O)C[C@H](O)[C@@H](N2CCN(c3ccccc3Cl)CC2)C1 [Compound 1, (3R,4R)-3-(4-(2-chlorophenyl)piperazin-1-yl)-4-hydroxytetrahydrothiophene 1,1-dioxide]",0.76 µM,1 µM,0.92 mL/min/g,> 464 µM,38 ×10⁻⁶ cm/s,4.53,15.7 mL/min/g,did not alter the MIC,>50 µM,–,–,–,–,–,–,–
CNS(=O)(=O)c1ccc2c(c1)CCN2C(=O)c1ccccc1F [Compound 2],5.6 µM,5 µM,–,140 µM,26 ×10⁻⁶ cm/s,–,–,did not alter the MIC,>100 µM,binding of both inhibitors,enhanced solubility,L-tryptophan rescued the inhibition,–,–,–,L-tryptophan synthesis in presence of inhibitor (TLC) [7]: markedly decreased; PFI [3]: 5.80
CNS(=O)(=O)c1ccc2c(c1)CCN2C(=O)c1ccc(C)s1 [Compound 3],1.1 µM,0.7 µM,1.9 mL/min/g,19 µM,42.7 ×10⁻⁶ cm/s,–,27.1 mL/min/g,did not alter the MIC,>100 µM,binding of both inhibitors,poor solubility,L-tryptophan rescued the inhibition,–,–,–,L-tryptophan produced in presence of inhibitor (GF-HPLC) [9]: significant decrease in the L-tryptophan produced
"NNC(=O)c1ccncc1 [Isoniazid, isoniazid, reference compound]",–,–,–,–,–,–,–,–,–,–,–,L-tryptophan does not rescue the inhibition,–,–,–,–
"(3R,4R)-3-(4-(2-chloro-4-fluorophenyl)piperidin-1-yl)-4-hydroxytetrahydrothiophene 1,1-dioxide [Compound 5]",–,–,–,–,–,5.22,–,–,–,–,397 µM,–,0.5 µM,52 ×10⁻⁶ cm/s,>100 µM,Efficacy response in acute infection assay (Mtb H37Rv [10]; sc): did not show a statistically significant response
"(3R,4R)-3-(4-(2-chlorophenyl)piperidin-1-yl)-4-hydroxytetrahydrothiophene 1,1-dioxide [Compound 4]",–,–,–,–,–,5.43,–,–,–,–,434 µM,–,2.25 µM,62.5 ×10⁻⁶ cm/s,>100 µM,"Efficacy response in acute infection assay (Mtb H37Rv [10]): proved to be efficacious; Reduction of log CFU compared with untreated mice (Mtb H37Rv [10]; po, 350 mg/kg): 1.4 log colony forming units (CFU); Tolerability in infected mice (Mtb H37Rv [10]; po, 500 mg/kg): had to be withdrawn due to adverse effects"
